Data taken from ChEMBL document CHEMBL1132211, “The role of waters in docking strategies with incremental flexibility for carbohydrate derivatives: heat-labile enterotoxin, a multivalent test case” (J Med Chem, 1999).

Test: Inhibitory concentration against Escherichia coli heat-labile enterotoxin (LT) binding to ganglioside GD1b was determined by ELISA assay

Q: For `OC[C@H]1O[C@@H](S[C@@H]2O[C@H](CO)[C@H](O)[C@H](O)[C@H]2O)[C@H](O)[C@@H](O)[C@H]1O` [THIODIGALACTOSIDE], which IC50 is on record?
A: 4 µM

Q: Which IC50 does the source give for `O=C[C@H](O)[C@@H](O)[C@@H](O)[C@H](O)CO` [GALACTOSE] here?
A: 57 µM

Q: Which IC50 does the source give for `O=[N+]([O-])c1cccc(O[C@@H]2O[C@H](CO)[C@H](O)[C@H](O)[C@H]2O)c1` here?
A: 0.6 µM

Q: For LACTOSE, ANHYDROUS, which IC50 is on record?
A: 45 µM

Q: For `O=C(O)[C@H](O)[C@@H](O)[C@H](O)[C@H](O)CO[C@@H]1O[C@H](CO)[C@H](O)[C@H](O)[C@H]1O`, which IC50 is on record?
A: 7 µM

Q: For `OC[C@H]1O[C@@H](O[C@@H]2[C@@H](CO)O[C@](O)(CO)[C@H]2O)[C@H](O)[C@@H](O)[C@H]1O` [LACTULOSE], which IC50 is on record?
A: 15 µM
